Assay results published in patent US20240115577A1, “SMALL MOLECULE REGULATORS OF ALVEOLAR TYPE 2 CELL PROLIFERATION FOR THE TREATMENT OF PULMONARY DISEASES” (THE SCRIPPS RESEARCH INSTITUTE, priority 2021, published 2024).
“Also recorded” adds a separate entry of the source. Like-named read-outs stand apart in the source and are kept apart here.

Assays:
Primary human AEC2s = test: AEC2 proliferation assay (Ki67 high content imaging); assay type: cell-based; conditions: for EC50: Homo sapiens
Method: To identify small molecules capable of proliferating AEC2s, as disclosed herein, we first established a culture system with primary human small airway epithelial cells (SAECs) from a commercial source.
AEC2 proliferation assay. Primary human AEC2s were plated at a density of 1,500 cells per well in black 384-well plates (Greiner) coated with 10 ug/mL. Laminin (Life Technologies) in 50 μL of Small Airway Epithelial Cell Growth Medium (Lonza) without EGF, retinoic acid and with 5% BPE. 100 nL of compound dissolved in DMSO was then delivered using a Biomek FX instrument (Beckman Coulter) fitted with a pintool head (V&P Scientific).

[1] = IT pharmacokinetics of dutogliptin (1) and dutogliptin boronate (15); assay type: in vivo, mouse; conditions: mouse, in vivo
Method: Like other […]. Dutogliptin (1) dosed IT in mice with PBS solution quickly cleared in lung (<24h. Table 8A). […] The parent drug dutogliptin was detected in plasma and lung. […] The drug was retained in the lung for over 48 h. The data clearly illustrated the unexpected lung retention ability of boronate prodrug 15.

HbA1c = conditions: once-a-day oral doses of 200 mg and 400 mg; cited from earlier work
[2] = system: acute lung injury induced by LPS; test: LPS-induced acute lung injury (ALI) model; assay type: in vivo, mouse; conditions: for minimal efficacious dose in LPS lung injury model / Efficacy in LPS acute lung injury model, result in words: oral; for Efficacy in LPS acute lung injury model, result in words: histological scoring, BALF protein
Method: Experimental methods of Acute Lung Injury (ALI) model
LPS from E. coli […] (Sigma) was used to induce acute lung injury in mice. Body weight matched (19 gram˜22 gram) female C57BL/6J mice at 9-11 weeks of age were selected to use in ALI model.
Vehicle control or DPP4 inhibitors were dosed at 10 ml/kg through oral gavage once or twice a day selected based on PK profile. […] Vehicle control or DPP4 inhibitors were dosed at 2 ml/kg through a 22 g flexible catheter every other day.
DPP4 inhibitors or vehicle control were given to mice starting from one day before LPS injection (day −1).
All animals were sacrificed at day 3.5 after LPS injection. Bronchoalveolar lavage fluid (BALF) was retrieved using standard method. 1 ml 4% formalin was used to inflate the lung, which was subsequently fixed in 4% formalin for 24 hours and preserved in 70% EtOH until histological process.
For readouts, total protein content in BALF was quantified using BCA assay: pulmonary inflammation and damage were assessed using H&E staining.

[3] = system: bleomycin-induced lung fibrosis; test: Bleomycin-induced lung fibrosis model; assay type: in vivo, mouse; conditions: for Dose required in mouse bleomycin / Dose required in mouse bleomycin, multiple of HED: Table 6; for Efficacy in bleomycin-induced lung fibrosis, result in words: oral, high doses
Method: Experimental Methods of Bleomycin Model Bleomycin (Hospira) was used to induce lung fibrosis in mice. Body weight matched (24 gram˜28 gram) male C57BL/6J mice at 10-12 weeks of age were selected to use in bleomycin model. For orally delivered DPP4 inhibitors. compounds were dissolved in PBS resulting in clear solution. […] For intratracheally delivered DPP4 inhibitors, compounds were dissolved in PBS resulting in clear solution. […] 0.5 U/kg Bleomycin or PBS in sham group was intratracheally injection into mice lung at day 0. […] All animals were sacrificed at day 20 after bleomycin injection. Bronchoalveolar lavage fluid (BALF) was retrieved using standard method. 1 ml 4% formalin was used to inflate the lung, which was subsequently fixed in 4% formalin for 24 hours and preserved in 70% EtOH until histological process. For readouts, body weight was measured every day; total protein content in BALF was quantified using BCA assay; pulmonary fibrosis was assessed using Masson's trichrome staining.

[4] = Pharmacokinetic profiling of four gliptins (oral, IT or OP); assay type: in vivo, mouse; conditions: for fraction of oral dose required by pulmonary (IT or OP) delivery for similar lung exposure: oral 100 mg/kg versus IT/OP 20 mg/kg
Method: B. Pharmacokinetic profiling. […] Thus, four of the five […] currently approved by the U.S. FDA were each administered to mice orally (100 mg/kg) or through intratracheal (IT) or oropharyngeal (OP) routes (20 mg/kg).

oral glucose tolerance = conditions: rodent models of diabetes; cited from earlier work
phospholipidosis = test: Phospholipidosis assay in vitro; conditions: FIG. 7A; listed as Linagliptin
[5] = in vivo; cited from earlier work
[6] = Table 4, promotion of AEC2 proliferation, read-out: AEC2 EC50
[7] = Table 5, read-out: AEC2 proliferation
[8] = 4.4 mg/kg, Lung concentration of dutogliptin, Mean
[9] = 4.4 mg/kg, Lung concentration of dutogliptin, individual animals

| Compound | EC50 (Primary human AEC2s; [6]) | EC50 (Primary human AEC2s; [7]) | AEC2 proliferation, result in words (Primary human AEC2s) | Dose required in mouse ALI ([2]; Table 6) | minimal efficacious dose in LPS lung injury model [2] | Dose required in mouse bleomycin [3] | Dose required in mouse bleomycin, multiple of HED [3] | Efficacy in bleomycin-induced lung fibrosis, result in words [3] | fraction of oral dose required by pulmonary (IT or OP) delivery for similar lung exposure [4] | dose with efficacy in OGTT model (oral glucose tolerance) | Dose required in mouse ALI, multiple of HED ([2]; Table 6) | Efficacy in LPS acute lung injury model, result in words ([2]; high doses) | further results |
| --- | --- | --- | --- | --- | --- | --- | --- | --- | --- | --- | --- | --- | --- |
| O=C(CN[C@@H]1CCNC1)N1CCC[C@H]1B(O)O [Cpd 1, ((R)-1-(((R)-pyrrolidin-3-yl)glycyl)pyrrolidin-2-yl)boronic acid] | 280 nM | 280 nM | – | – | – | – | – | – | – | – | – | – | time to clearance from lung [1]: < 24 h; concentration at 3 h ([1]; 4.4 mg/kg, Bronchoalveolar lavage fluids concentration of dutogliptin, Mean): 309 ng/mL; concentration at 3 h ([1]; 4.4 mg/kg, Bronchoalveolar lavage fluids concentration of dutogliptin, individual animals): 400 ng/mL; concentration at 3 h [1, 8]: 6550 ng/g; concentration at 7 h [1, 8]: 4560 ng/g; concentration at 3 h [1, 9]: 6800 ng/g; concentration at 7 h [1, 9]: 3800 ng/g; concentration at 24 h [1, 9]: 3720 ng/g; HbA1c versus placebo (HbA1c): statistically reduced |
| N#C[C@@H]1C[C@@H]2C[C@@H]2N1C(=O)[C@@H](N)C12CC3C[C@@H](C1)C[C@@](O)(C3)C2 [Cpd 4, (1S,3S,5S)-2-((2S)-2-amino-2-((1S,3R,5S)-3-hydroxyadamantan-1-yl)acetyl)-2-azabicyclo[3.1.0]hexane-3-carbonitrile] | 650 nM | 650 nM | promote AEC2 proliferation to the same magnitude as NVP-728 | 50 mg/kg BID (10- | 50 mg/kg | 50 mg/kg BID | (10-20x HED) | efficacious | one-fifth | 0.5 to 5 mg/kg | – | – | Efficacy in LPS acute lung injury model, result in words ([2]; high doses, listed as Saxagliptin): efficacious; also recorded: promote repair; also recorded: dramatic improvements |
| CC#CCn1c(N2CCC[C@@H](N)C2)nc2c1c(=O)n(Cc1nc(C)c3ccccc3n1)c(=O)n2C [Cpd 5, (R)-8-(3-aminopiperidin-1-yl)-7-(but-2-yn-1-yl)-3-methyl-1-((4-methylquinazolin-2-yl)methyl)-3,7-dihydro-1H-purine-2,6-dione] | – | – | – | 1 mg/kg QD | – | >10 mg/kg qD | (>20x HED) | efficacious | one-fifth | – | model (2x HED) | efficacious | doses with antagonistic activity, repeat dosing ([2]; FIG. 7B): ≥ 2 mg/kg; efficacious dose, repeat dosing ([2]; FIG. 7B): 1 mg/kg; dose toxic in mouse ALI model ([2]; Table 6): 2 mg/kg; lung exposure over the evaluated time frame ([4]; versus other gliptins): considerably higher lung exposure; phospholipidosis induction (phospholipidosis): significant phospholipidosis at low concentrations; also recorded: induces phospholipidosis |
| Cc1cc(N2CCN([C@@H]3CN[C@H](C(=O)N4CCSC4)C3)CC2)n(-c2ccccc2)n1 [Cpd 8, ((2S,4S)-4-(4-(3-methyl-1-phenyl-1H-pyrazol-5-yl)piperazin-1-yl)pyrrolidin-2-yl)(thiazolidin-3-yl)methanone] | – | – | – | – | – | – | – | – | – | – | – | – | Adverse Events [5]: 160 mg/day cardiac safety |
| N[C@@H](CC(=O)N1CCn2c(nnc2C(F)(F)F)C1)Cc1cc(F)c(F)cc1F [Sitagliptin] | – | 560 nM | promote AEC2 proliferation to the same magnitude as NVP-728 | 100 mg/kg BID | 100 mg/kg | 100 mg/kg mg/kg BID | – | efficacious; also recorded: ameliorative efficacy; also recorded: robust protection | one-fifth | 3 to 30 mg/kg | (10-20x HED) | efficacious; also recorded: promote repair; also recorded: dramatic improvements | proliferative AEC2s (KI-67 SFPTC double positive cells) ([2]; LPS model): substantial increase; total number of cells (all nuclei) or Ki-67 positive cells in the lung ([2]; LPS model): does not significantly increase; cytokine or BALF levels at early timepoints ([2]; high doses, time course): do not affect; protection in bleomycin model, co-treatment with Nintedanib (Ofev) ([3]; Bliss independence calculations): synergistic protection |
